Laboratory results from paper PMC5603603, “Linoleic and palmitoleic acid block streptokinase-mediated plasminogen activation and reduce severity of invasive group A streptococcal infection” (Scientific Reports, 2017).
Where “and” joins values, the source holds several entries; their conditions need not be identical. Identical values can stand only once.

Legend:
S. pyogenes strain A666 = test: Clotting assay, escape of streptococci from clot (cluster 2b type streptokinase); type: cell-based; settings: 60 µg/ml, after 4 h, p < 0.05
Description: To assess whether LA and PA influence the entrapment of bacteria within clots, a 50 ml overnight culture (THY medium) of the S. pyogenes strains AP1 or A666 was centrifuged at 4332 × g for 10 min. […] For clot induction, 100 µl citrate plasma, 100 µl of the respective bacterial suspension and 50 µl thrombin-reagent (Haemochrom Diagnostica) were used. […] Then clots were left untreated (treated with sodium citrate buffer only) or were treated with LA or PA (diluted in sodium citrate buffer). For clots formed with S. pyogenes strain A666, a final concentration of 60 µg/ml was used for both, LA and PA. For those formed with S. pyogenes strain AP1, a final concentration of 30 µg/ml was used. 50 µl of the supernatant of each sample were plated onto blood agar plates in serial dilutions at 0, 2 and 4 h after clot induction and incubated at 37 °C overnight. Colonies were counted the following day to assess the number of bacteria which had escaped the clot. […] Two independent experiments were performed. Standard deviations were calculated accordingly. Citrate plasma was obtained from healthy volunteers who gave their informed consent.

S. pyogenes strain AP1 = test: Invasive humanized plasminogen murine infection model; type: in vivo, Humanized Plg transgenic AlbPLG1 mice; settings: 50 µg s.c. (approx. 2 mg/kg) once on day of infection; for Hazard ratio (Mantel-Haenszel) treated/untreated: 1 × 10^7 cfu AP1 s.c.; for survival time in comparison with the untreated group: p = 0.0021
Description: All animal experiments were performed in strict accordance with the guidelines of the “European Convention for the Protection of Vertebrate Animals used for Experimental and other Scientific purposes”, with the “Australian Code of Practice for the Care and Use of Animals for Scientific Purposes” and with the “Guidelines for the Care and Use of Laboratory Animals” (National Health and Medical Research Council, Australia). All experiments conducted in Germany were approved by the ethical board of “Niedersächsisches Landesamt für Verbraucherschutz und Lebensmittelsicherheit”, Oldenburg, Germany (animal ethics no.: 33.9-42502-04-12/1009). All experiments conducted in Australia were approved by the University of Queensland Animal Ethics Committee, Brisbane, Australia (animal ethics no.: SCMB/ 553/12/NHMRC). Humanized Plg transgenic AlbPLG1 mice, heterozygous for the human Plg gene[6], were bred and used in the animal facility at the Helmholtz Centre for Infection Research or at the Australian Infectious Disease Research Centre. An overnight culture of the strain AP1 (in THY medium) was re-inoculated in fresh THY medium and grown until mid-log phase (OD 0.4–0.6). Then the bacteria were centrifuged at 4332 × g for 10 min and washed twice in PBS. They were resuspended in PBS and adjusted to an OD of 1.0. Sex- and age-matched (eight- to sixteen-week-old) groups of C57Bl6/J huPlg positive transgenic mice were infected s.c. with 1 × 10^7 cfu of S. pyogenes strain AP1. Cohorts of 15–16 mice were used (the experiment was performed four times with cohorts of 3–5 mice). The specific inoculum dose was administered in a 100 µl volume. Untreated mice received PBS subcutaneously (s.c.) as a control on the day of infection. Treated mice received either 50 µg of linoleic acid (diluted in PBS) or 50 µg of palmitoleic acid (diluted in PBS) s.c. on the day of infection. During the experiment mice were monitored for locomotion, behavior, appearance and weight. Mice were euthanized when they lost more than 20% of weight or when they reached a score of two for three of the following parameters: locomotion, appearance or behavior (authority regulations). The experiment ended after 7 days or after all mice had died.
Significance was determined by using a two-tailed, paired student’s t-test. Survival data were analyzed using GraphPad Prism7 Software. Significance was determined by using a Mantel-Cox- and a Wilcoxon-Test.

[1] = molecular target: cluster 2b type streptokinase (Streptococcus pyogenes, UniProt P10520); design: species or system group A streptococcal strain A314; settings: cell-based; for IC50: cluster 2b; for fold lower IC50 compared to TXA and EACA: streptokinase cluster type 2b
Description: Then inhibitory compounds (LA, PA, oleic, myristic, stearic, palmitic, arachidonic, arachidic, linolenic acid, TXA or EACA) were added. Stocks of LA and PA were prepared in methanol and then diluted in PBS. Stocks of arachidic, oleic, arachidonic, myristic, palmitic, stearic and linolenic acid were prepared in 60% DMSO/PBS and then diluted in PBS. The untreated control received the same amount of PBS as in case of TXA and EACA as control or the same amount of methanol diluted in PBS as in case of LA and PA, respectively, or the same amount of DMSO diluted in PBS as in case of the other commercially available fatty acids. […] The assay was incubated at 37 °C and measured at the beginning of the reaction and then every hour at 405 nm after 3 sec of shaking on a Tecan Sunrise ELISAReader using Magellan software. Each experiment was repeated three times. IC50 values were calculated using Microsoft® Excel software.

Compound	GAS escaped from the clot compared to the untreated clot (S. pyogenes strain A666)	Hazard ratio (Mantel-Haenszel) treated/untreated (S. pyogenes strain AP1)	survival time in comparison with the untreated group (S. pyogenes strain AP1)	IC50 [1]	fold lower IC50 compared to TXA and EACA [1] [fold]
CCCCC/C=C\C/C=C\CCCCCCCC(=O)O [LA, linoleic acid]	significantly lower amount of GAS escaped	0.1429	significantly extended the survival time	64.5 µM and 61.7 µM	1000
CCCCCC/C=C\CCCCCCCC(=O)O [PA, palmitoleic acid]	significantly lower amount of GAS escaped	0.1429	significantly extended the survival time	61.1 µM and 63.3 µM	1000
